Measured values from patent US10160726B2, “Quinolone derivatives as antibacterials” (priority 2014, dated 2018).
In brackets after ≈: the same amount, converted by molar mass. Where a name gives a salt, the structure may show the parent alone. Read-outs that look alike come from different tables or passages of the source.

Key:
[1] = target: E. coli DNA gyrase (GyrA-B) (Escherichia coli, UniProt P0AES4); assay: Supercoiling assay of E. coli gyrase; type: biochemical; details: supercoiling activity of E. coli gyrase (GyrA-B); read-out: GyrA-B IC50 (Enzyme)
Method: Method 1: Supercoiling Assay of E. Coli Gyrase
Enzymatic activity of E. coli DNA gyrase reconstituted from its purified subunits was assessed by monitoring the introduction of supercoils into the relaxed plasmid pHOT-1 (TopoGEN, TG2035-3). To form the functional gyrase A2B2 heterotetrameric enzyme, equal molar concentrations of the GyrA and GyrB subunits were combined at high protein concentration (500 nM) and incubated on ice for 1 hour prior to assay start in reaction buffer without ATP or the pHOT-1 plasmid. The reaction mixture (25 μl) contained 10 nM enzyme, 10 ng/μl pHOT-1, 1 mM ATP, 35 mM Tris-HCl pH 7.5, 24 mM KCl, 4 mM MgCl2, 2 mM DTT, 1.8 mM spermidine, 6.5% glycerol, and 100 μg/ml bovine serum albumin. The reaction was carried out at 37° C. for 90 minutes and terminated by the addition of 2.5 μl of 10× stop solution (0.9% SDS, 50% glycerol, 0.05% bromophenol blue). […] Gels were stained with ethidium bromide (0.5 μg/ml) for 30 minutes and destained in water for 20 minutes. All gels were analyzed using the BIO-RAD ChemiDocTm XRS+ with Image Lab 3.0 software. The 50% inhibition concentration (IC50) was determined as being the compound concentration at which the supercoiled band was reduced by 50% from the DMSO drug free control (Microsoft Excel 2010 IDBS XLfit, GraftPad Prism 6).

[2] = system: P. aeruginosa NB52019 (wild-type PAO1); assay: MIC, broth microdilution (CLSI); type: cell-based; details: Pseudomonas aeruginosa, read-out: Antibacterial activity (MIC) NB52019
[3] = system: S. aureus ATCC 29213 (NB01001); assay: MIC, broth microdilution (CLSI); type: cell-based; details: Staphylococcus aureus, ATCC29213; S. aureus ATCC 29213; 35° C., 20 hours; read-out: Antibacterial activity (MIC) NB01001
[4] = system: P. aeruginosa NB52023-CDK0006 (gyrA T83I, parC S87L); assay: microbe, parasite or virus in culture; type: cell-based; details: Pseudomonas aeruginosa, 20 h, read-out: Antibacterial activity (MIC) NB52023-CDK0006
[5] = system: S. aureus NB01006-AVR005 (gyrA S84L, grlA S80F, grlB E471K); assay: microbe, parasite or virus in culture; type: cell-based; details: Staphylococcus aureus, 20 h, read-out: Antibacterial activity (MIC) NB01006-AVR005
[6] = system: E. coli ATCC 25922 (NB27001); assay: MIC, broth microdilution (CLSI); type: cell-based; details: Escherichia coli, ATCC25922; E. coli ATCC 25922; 35° C., 20 hours; read-out: Antibacterial activity (MIC) NB27001
[7] = system: P. aeruginosa NB52023 (efflux deficient K1542, ΔmexX ΔmexB); assay: microbe, parasite or virus in culture; type: cell-based; details: Pseudomonas aeruginosa, 20 h, read-out: Antibacterial activity (MIC) NB52023
[8] = system: E. coli NB27177 (efflux deficient CGSC 11430, ΔtolC732::kan); assay: microbe, parasite or virus in culture; type: cell-based; details: Escherichia coli, 20 h, read-out: Antibacterial activity (MIC) NB27177

Chain of E. coli DNA gyrase (GyrA-B) (P0AES4 whole entry): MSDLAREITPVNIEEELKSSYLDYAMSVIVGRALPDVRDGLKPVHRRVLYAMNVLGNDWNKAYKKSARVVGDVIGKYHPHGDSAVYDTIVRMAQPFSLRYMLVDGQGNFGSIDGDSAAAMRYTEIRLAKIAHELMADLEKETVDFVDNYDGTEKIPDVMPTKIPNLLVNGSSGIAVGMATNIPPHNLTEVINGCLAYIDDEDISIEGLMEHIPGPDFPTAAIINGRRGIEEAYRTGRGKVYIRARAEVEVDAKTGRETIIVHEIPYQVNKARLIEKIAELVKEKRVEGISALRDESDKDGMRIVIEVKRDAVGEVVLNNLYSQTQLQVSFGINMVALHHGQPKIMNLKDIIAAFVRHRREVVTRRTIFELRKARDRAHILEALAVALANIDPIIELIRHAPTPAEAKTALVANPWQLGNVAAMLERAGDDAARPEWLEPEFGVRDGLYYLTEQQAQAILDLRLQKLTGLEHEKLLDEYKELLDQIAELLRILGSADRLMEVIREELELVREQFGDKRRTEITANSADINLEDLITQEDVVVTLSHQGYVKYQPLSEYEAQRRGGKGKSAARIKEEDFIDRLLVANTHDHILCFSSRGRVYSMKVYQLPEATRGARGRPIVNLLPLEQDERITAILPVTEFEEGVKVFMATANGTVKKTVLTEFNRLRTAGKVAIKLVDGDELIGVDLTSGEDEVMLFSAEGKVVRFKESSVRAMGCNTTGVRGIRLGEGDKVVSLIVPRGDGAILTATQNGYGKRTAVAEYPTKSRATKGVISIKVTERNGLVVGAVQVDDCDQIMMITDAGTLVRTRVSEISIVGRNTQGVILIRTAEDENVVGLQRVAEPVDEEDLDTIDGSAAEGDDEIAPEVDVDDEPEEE

SMILES | IC50 [1] [µM] | MIC ([2]; PAO1, 20 h) [µg/mL] | MIC [3] [µg/mL] | MIC [4] [µg/mL] | MIC [5] [µg/mL] | MIC [6] [µg/mL] | MIC [7] [µg/mL] | MIC [8] [µg/mL] | MIC ([2]; P. aeruginosa wild-type PAO1, 35° C., 20 hours) [µg/mL]
COc1c(N2CC[C@@H]([C@H](C)N)C2)c(F)cc2cc(C(=O)O)c(=O)n(C3CC3)c12 [Example 12, 7-((R)-3-((S)-1-aminoethyl)pyrrolidin-1-yl)-1-cyclopropyl-6-fluoro-8-methoxy-2-oxo-1,2-dihydroquinoline-3-carboxylic acid hydrochloride] | 4.64 |  |  |  |  |  |  |  | 
Cc1c(N2CC[C@@H]([C@H](C)N)C2)c(F)cc2cc(N)c(=O)n(C3CC3)c12 [Example 8, 3-amino-7-((R)-3-((S)-1-aminoethyl)pyrrolidin-1-yl)-1-cyclopropyl-6-fluoro-8-methylquinolin-2(1H)-one hydrochloride salt] | 1.68 |  |  |  |  |  |  |  | 
Cc1c(N2CC[C@@H]([C@H](C)N)C2)c(F)cc2c(OCc3n[nH]c(=O)o3)cc(=O)n(C3CC3)c12 [Example 64, 5-(((7-((R)-3-((S)-1-aminoethyl)pyrrolidin-1-yl)-1-cyclopropyl-6-fluoro-8-methyl-2-oxo-1,2-dihydroquinolin-4-yl)oxy)methyl)-1,3,4-oxadiazol-2(3H)-one] | 3.2 | > 32 | 8 (≈ 18 µM) | > 32 | 4 (≈ 9.02 µM) | 32 (≈ 72.2 µM) | > 32 | 4 (≈ 9.02 µM) | 
Cc1c(N2CCC(C3(N)CC3)C2)c(F)cc2ccc(=O)n(C3CC3)c12 (stereo not shown) [Example 9.2, 7-(3-(1-Aminocyclopropyl)pyrrolidin-1-yl)-1-cyclopropyl-6-fluoro-8-methylquinolin-2(1H)-one] | 1.19 | > 32 | 0.125 (≈ 0.366 µM) | 32 (≈ 93.7 µM) | 0.125 (≈ 0.366 µM) | 4 (≈ 11.7 µM) | 16 (≈ 46.9 µM) | 0.06 (≈ 0.176 µM) | 
Cc1c(N2CC[C@@H]([C@H](C)N)C2)c(F)cc2c(-c3nnn[nH]3)cc(=O)n(C3CC3)c12 [Example 39, 7-((R)-3-((S)-1-aminoethyl)pyrrolidin-1-yl)-1-cyclopropyl-6-fluoro-8-methyl-4-(1H-tetrazol-5-yl)quinolin-2(1H)-one] | 9.8 | 32 (≈ 80.5 µM) | 32 (≈ 80.5 µM) | > 32 | > 32 | 32 (≈ 80.5 µM) | > 32 | 32 (≈ 80.5 µM) | 
Cc1c(-c2ccc(N)nc2)c(F)cc2cc(O)c(=O)n(C3CC3)c12 [Example 11.2, 7-(6-aminopyridin-3-yl)-1-cyclopropyl-6-fluoro-3-hydroxy-8-methylquinolin-2(1H)-one] | 8.07 | > 32 | 1 (≈ 3.07 µM) | > 32 | 2 (≈ 6.15 µM) | 8 (≈ 24.6 µM) | 16 (≈ 49.2 µM) | 0.125 (≈ 0.384 µM) | 
Cc1c(N2CC[C@@H]([C@H](C)N)C2)c(F)c(F)c2ccc(=O)n(C3CC3)c12.O=C(O)C(F)(F)F [Example 106, 7-((R)-3-((S)-1-aminoethyl)pyrrolidin-1-yl)-1-cyclopropyl-5,6-difluoro-8-methyl quinolin-2(1H)-one TFA] |  |  | 0.015 | 1 | 0.015 | 0.125 | 0.5 | < 0.03 | 2
Cc1c(N2CC[C@@H]([C@H](C)N)C2)c(F)cc2c(CO)cc(=O)n(C3CC3)c12 [Example 47, 7-((R)-3-((S)-1-aminoethyl)pyrrolidin-1-yl)-1-cyclopropyl-6-fluoro-4-(hydroxymethyl)-8-methylquinolin-2(1H)-one] |  | 16 (≈ 44.5 µM) | 0.25 (≈ 0.696 µM) | 8 (≈ 22.3 µM) | 0.25 (≈ 0.696 µM) | 16 (≈ 44.5 µM) | 4 (≈ 11.1 µM) | 0.25 (≈ 0.696 µM) | 
Cc1c(N2CC[C@@H]([C@H](C)N)C2)c(F)cc2c(OCCCC(=O)O)cc(=O)n(C3CC3)c12 [Example 61, 4-((7-((R)-3-((S)-1-aminoethyl)pyrrolidin-1-yl)-1-cyclopropyl-6-fluoro-8-methyl-2-oxo-1,2-dihydroquinolin-4-yl)oxy)butanoic acid] |  | 32 (≈ 74.2 µM) | > 32 | > 32 | > 32 | 32 (≈ 74.2 µM) | > 32 | > 32 | 
Cc1c(N2CC[C@@H]([C@H](C)N)C2)c(F)cc2c(/C=C/C(=O)O)cc(=O)n(C3CC3)c12 [Example 22, (E)-3-(7-((R)-3-((S)-1-aminoethyl)pyrrolidin-1-yl)-1-cyclopropyl-6-fluoro-8-methyl-2-oxo-1,2-dihydroquinolin-4-yl)acrylic acid] |  | > 32 | 8 (≈ 20 µM) | > 32 | 8 (≈ 20 µM) | 32 (≈ 80.1 µM) | > 32 | 8 (≈ 20 µM) | 
Cc1c(N2CCC(F)(CN)C2)c(F)c(F)c2c(CN)cc(=O)n(C3CC3)c12 (stereo not shown) [Example 83, 4-(aminomethyl)-7-(3-(aminomethyl)-3-fluoropyrrolidin-1-yl)-1-cyclopropyl-5,6-difluoro-8-methylquinolin-2(1H)-one TFA salt] |  | 2 | 0.125 | 0.5 | 0.125 | 0.125 | 0.25 | < 0.03 | 
CC(=O)NCc1cc(=O)n(C2CC2)c2c(C)c(N3CC[C@@H]([C@H](C)N)C3)c(F)cc12 [Example 46, N-((7-((R)-3-((S)-1-aminoethyl)pyrrolidin-1-yl)-1-cyclopropyl-6-fluoro-8-methyl-2-oxo-1,2-dihydroquinolin-4-yl)methyl)acetamide] |  | 32 (≈ 79.9 µM) | 8 (≈ 20 µM) | > 32 | 2 (≈ 4.99 µM) | 32 (≈ 79.9 µM) | > 32 | 2 (≈ 4.99 µM) | 
Cc1c(N2CC[C@@H]([C@H](C)N)C2)c(F)cc2c(OCCN)cc(=O)n(C3CC3)c12 [Example 51, 4-(2-aminoethoxy)-7-((R)-3-((S)-1-aminoethyl)pyrrolidin-1-yl)-1-cyclopropyl-6-fluoro-8-methylquinolin-2(1H)-one] |  | 4 (≈ 10.3 µM) | 0.5 (≈ 1.29 µM) | 2 (≈ 5.15 µM) | 0.5 (≈ 1.29 µM) | 2 (≈ 5.15 µM) | 2 (≈ 5.15 µM) | 0.06 (≈ 0.154 µM) | 
Cc1c(N2CCC(F)(CN)C2)c(F)c(F)c2c(CN)cc(=O)n(C3CCC3)c12 (stereo not shown) [Example 115, 4-(aminomethyl)-7-(3-(aminomethyl)-3-fluoropyrrolidin-1-yl)-1-cyclobutyl-5,6-difluoro-8-methylquinolin-2(1H)-one TFA salt] |  | > 32 | 2 | 16 | 4 | 1 | 8 | 0.5 | 
N#Cc1c(N2CC[C@H](N)C2)c(F)cc2c(CN)cc(=O)n(C3CC3)c12 [Example 114, (S)-4-(aminomethyl)-7-(3-aminopyrrolidin-1-yl)-1-cyclopropyl-6-fluoro-2-oxo-1,2-dihydroquinoline-8-carbonitrile] |  | 16 (≈ 46.9 µM) | 16 (≈ 46.9 µM) | 4 (≈ 11.7 µM) | 32 (≈ 93.7 µM) | 2 (≈ 5.86 µM) | 2 (≈ 5.86 µM) | 0.5 (≈ 1.46 µM) | 
Cc1c(N2CC[C@@H]([C@H](C)N)C2)c(F)cc2c(OCC(N)=O)cc(=O)n(C3CC3)c12 [Example 56, 2-((7-((R)-3-((S)-1-aminoethyl)pyrrolidin-1-yl)-1-cyclopropyl-6-fluoro-8-methyl-2-oxo-1,2-dihydroquinolin-4-yl)oxy)acetamide] |  | > 32 | 4 (≈ 9.94 µM) | > 32 | 4 (≈ 9.94 µM) | 32 (≈ 79.5 µM) | 16 (≈ 39.8 µM) | 2 (≈ 4.97 µM) | 
Cc1c(N2CC[C@@H]([C@H](C)N)C2)c(F)cc2cc(C(=O)O)c(=O)n(C3CC3)c12.Cl [Example 1.1, 7-((R)-3-((S)-1-aminoethyl)pyrrolidin-1-yl)-1-cyclopropyl-6-fluoro-8-methyl-2-oxo-1,2-dihydroquinoline-3-carboxylic acid hydrochloride salt] | 0.68 |  |  |  | 2 |  |  |  | 
